Holding throughout (type): physicochemical
A short description of series [1]: Solubility test in cosmetic solvents and water. To be noted: for solubility: % m/V; for precipitation visible after: addition to the respective solvent. As to the method: The solubility of Compounds A to D was tested, wherein the addition of Compound A and B to the respective solvent had been stopped after 50% m/V. In case of Compound C and D, a precipitation after about 1% m/V had been visible. The respective pH-values (see Table 1) had been measured of the final solution or suspension, respectively.

Series [2] in a line: Specific extinction coefficient (UV/VIS spectrophotometer). As to conditions: for E (1%, 1 cm), maximum absorbance: d=1 cm, 250 nm to 500 nm. As to the method:
The specific extinction coefficient of Compounds A to D was measured using a Perkin Elmer Lambda 650 UV/VIS Spectrophotometer. A stock solution of concentration c=1 mM of the UV-absorber was prepared in a 100 ml volumetric flask using either buffer or ethanol. Dilution steps followed in order to adjust the concentration, such that the extinction E at optical pathlength d=1 cm will be 1.0±0.5. UV spectrum was determined in a cuvette of an optical pathlength of d=1 cm at 250 nm to 500 nm. With the Beer-Lambert law one obtains the molar decadic extinction coefficient at any wavelength with: The respective specific extinction E %1.1 cm can be obtained via the following equation: […] where M=molecular weight of the UV-absorber. A di-sodium hydrogen phosphate/potassium dihydrogen phosphate buffer (ordering number 1.09439.1000) or ethanol (ordering number 1.00983.2511), each purchased from Merck was used.

Series [3] in a line: Incorporation of UV filter into water phase of cosmetic formulation. To be noted: 2.00 in Formulations 1, 2 and 4; pH 7-8. How it is done: Formulations 1 to 4 and a Placebo formulation were manufactured as follows. Part A and part B (see Table 3) were prepared separately and heated to 75-80° C. Under increasing stirring, part B was incorporated to part A and homogenized with Ultra Turrax for 20 sec. at 11000 rpm. The mixture was let cooled down to rt under stirring and part C was added. At rt pH 7-8 was adjusted with NaOH.

Where [4] appears, read: Water, addition of Compound A and B stopped after 50% m/V.
Setting [5] is: cosmetic solvent Cetiol Ultimate.

The structures appear in SMILES notation.

As for `CC1=C(NCCOCCO)CCC/C1=N\CCOCCO.Cl` [Compound A, (E)-2-(2-hydroxyethoxy)-N-(3-((2-(2-hydroxyethoxy)ethyl)amino)-2-methylcyclohex-2-en-1-ylidene)ethan-1-aminium chloride], in series [1] (Water), the “pH-value of the final solution or suspension” value (“pH-value” for short) is listed as “(pH 6)”. In addition, the solubility in series [1] (setting [4]) was more than 50.0%; in series [1] (cosmetic solvent Cetiol AB), “insoluble”; in series [1] (setting [5]), “insoluble”; in series [1] (cosmetic solvent Myritol 318) it was “insoluble”. The “E (1%, 1 cm), maximum absorbance” value in series [2] (buffer pH7 (phosphate buffer)) amounted to 943. In addition, the “incorporation of UV filter into the water phase in sufficiently high concentrations” value (“incorporation” below) in series [3] is on record as “could be incorporated into the water phase in sufficiently high concentrations”.
For `CC1=C(NCCO)CCC/C1=N\CCO.Cl` [Compound B, (E)-2-hydroxy-N-(3-((2-hydroxyethyl)amino)-2-methylcyclohex-2-en-1-ylidene)ethan-1-aminium chloride], the “pH-value” value in series [1] (Water) was “(pH 6)”. Moreover, the solubility is given as more than 50.0% in series [1] (setting [4]), “insoluble” in series [1] (cosmetic solvent Cetiol AB), “insoluble” in series [1] (setting [5]) and “insoluble” in series [1] (cosmetic solvent Myritol 318). The “specific extinction coefficient / absorbance, comparison among Compounds A to D (FIG. 1)” value in series [2] (FIG. 1) is “highest specific extinction coefficient”. The “E (1%, 1 cm), maximum absorbance” value in series [2] (buffer pH7 (phosphate buffer)) came out at 1725. The “incorporation” value in series [3] was “could be incorporated into the water phase in sufficiently high concentrations”.
Turning to `COc1ccc(/N=C2\CCC(Nc3ccc(OC)cc3)=C2C)cc1.Cc1ccc(S(=O)(=O)O)cc1` [Compound C, (E)-4-methoxy-N-(3-((4-methoxyphenyl)amino)-2-methylcyclopent-2-en-1-ylidene)benzenaminium 4-methylbenzenesulfonate], the “pH-value” value in series [1] (Water) was “(pH 7)”. Besides, the solubility in series [1] (setting [4]) is less than 1.0%; in series [1] (cosmetic solvent Cetiol AB), less than 1.2%; in series [1] (setting [5]), less than 1.0%; in series [1] (cosmetic solvent Myritol 318) it was less than 1.0%. Moreover, in series [1], the precipitation visible after entry is “about 1 % m/V”. In addition, the “E (1%, 1 cm), maximum absorbance” value in series [2] (in EtOH) was 737.
`CC1=C(Nc2ccccc2Br)CC/C1=N\c1ccccc1Br.Cc1ccc(S(=O)(=O)O)cc1` [Compound D, (E)-2-bromo-N-(3-((2-bromophenyl)amino)-2-methylcyclopent-2-en-1-ylidene)benzenaminium 4-methylbenzenesulfonate]: the “pH-value” value in series [1] (Water) was “(pH 7)”. Further, the solubility is less than 1.0% in series [1] (setting [4]), less than 1.2% in series [1] (cosmetic solvent Cetiol AB), less than 1.0% in series [1] (setting [5]) and less than 1.0% in series [1] (cosmetic solvent Myritol 318). The precipitation visible after entry in series [1] is reported as “about 1 % m/V”. The “E (1%, 1 cm), maximum absorbance” value in series [2] (in EtOH) stood at 659. In addition, in series [3], the “incorporation” value is “not been possible to solve”.
